# Read-outs that look alike come from different tables or passages of the source.
# Legend:
# corn = test: Test B pre-/postemergence herbicide test; type: in vivo, Zea mays
# Method in brief: (§1)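 Pre: seeds sown, then sprayed. Post: 1–4-leaf plants (2–18 cm) sprayed at the same time. Paddy: flooded, treated at 2-leaf stage. Formulation: non-phytotoxic solvent with surfactant. Greenhouse 13–15 days; visual 0–100 score relative to controls.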
# wild oat = test: Test B postemergence herbicide test; type: in vivo, Avena fatua; conditions: Avena fatua, post-emergence, 336 h, read-out: Oat, Wild plant response rating
# Method in brief: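 Postemergence plants were sprayed with formulated test chemicals at 2 to 18 cm height (1- to 4-leaf stage); paddy species were grown to the 2-leaf stage. After 13 to 15 days in a greenhouse, injury was rated visually against untreated controls on a 0–100 scale (0 = no effect, 100 = complete control).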
# [1] = test system: small flower umbrella sedge; test: Test B flooded paddy test; type: in vivo, Cyperus difformis; conditions: Cyperus difformis, 336 h, 1000 g ai/ha, scale 0 to 100 (0 no effect, 100 complete control), read-out: Sedge, Umbrella plant response rating
# Method in brief: (§2)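 Scale 0–100: zero equals no visible effect, 100 complete control, judged by eye relative to controls. Timing: 13 to 15 days in greenhouse post-treatment. Growth stage at spraying: two leaves (paddy) or one to four leaves, 2–18 cm (postemergence).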
# rice = test: Test B flooded paddy test; type: in vivo, Oryza sativa; conditions: Oryza sativa, 336 h, 1000 g ai/ha, scale 0 to 100 (0 no effect, 100 complete control), read-out: Rice plant response rating
# Method in brief: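 Plants grow to 1- to 4-leaf stage (2–18 cm) for postemergence spraying, or to 2-leaf stage for the paddy test. Formulated compound is applied. Greenhouse holding lasts 13–15 days. Response is scored visually relative to controls, 0 no effect to 100 complete control; a dash means no result.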
# lambsquarters = test: Test B pre-/postemergence herbicide test; type: in vivo, Chenopodium album; conditions: for pest or weed control at 500 g/ha: 500 g ai/ha
# Method in brief: as §1
# barnyardgrass [2] = test: Test B pre-/postemergence herbicide test; type: in vivo, Echinochloa crus-galli; conditions: for pest or weed control at 500 g/ha: 500 g ai/ha
# Method in brief: (§3)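 Formulation: non-phytotoxic solvent mix with surfactant. Timing: preemergence on seed and postemergence on 2–18 cm plants, applied concurrently. Readout after 13–15 d greenhouse: visual 0–100 control rating against controls.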
# barnyardgrass [3] = test: Test B flooded paddy test; type: in vivo, Echinochloa crus-galli; conditions: Echinochloa crus-galli, 336 h, 1000 g ai/ha, scale 0 to 100 (0 no effect, 100 complete control), read-out: Barnyardgrass plant response rating
# Method in brief: as §2
# giant foxtail = test: Test B pre-/postemergence herbicide test; type: in vivo, Setaria faberi; conditions: for pest or weed control at 500 g/ha: 500 g ai/ha
# Method in brief: as §1
# ducksalad = test: Test B flooded paddy test; type: in vivo, Heteranthera limosa; conditions: Heteranthera limosa, 336 h, 1000 g ai/ha, scale 0 to 100 (0 no effect, 100 complete control), read-out: Ducksalad plant response rating
# Method in brief: as §2
# cocklebur = test: Test B pre-/postemergence herbicide test; type: in vivo, Xanthium strumarium; conditions: for pest or weed control at 500 g/ha: 500 g ai/ha
# Method in brief: as §3
# pigweed = test: Test B pre-/postemergence herbicide test; type: in vivo, Amaranthus retroflexus; conditions: for pest or weed control at 500 g/ha: 500 g ai/ha
# Method in brief: as §1
# velvetleaf = test: Test B pre-/postemergence herbicide test; type: in vivo, Abutilon theophrasti
# Method in brief: as §1
# blackgrass = test: Test B postemergence herbicide test; type: in vivo, Alopecurus myosuroides; conditions: Alopecurus myosuroides, post-emergence, 336 h, read-out: Blackgrass plant response rating
# Method in brief: as §2
# large crabgrass = test: Test B pre-/postemergence herbicide test; type: in vivo, Digitaria sanguinalis; conditions: for pest or weed control at 500 g/ha: 500 g ai/ha
# Method in brief: as §1
# morningglory = test: Test B pre-/postemergence herbicide test; type: in vivo, Ipomoea coccinea; conditions: for pest or weed control at 500 g/ha: 500 g ai/ha
# Method in brief: as §3
# [4] = 125 g ai/ha, 0 is no effect, 100 is complete control, preemergence
# [5] = 125 g ai/ha, visual rating, scale 0 (no effect) to 100 (complete control)
# [6] = postemergence, 500 g ai/ha, scale 0 to 100, 0 is no effect, 100 is complete control
compound,measurement,setting,value
"CCNC(=O)c1ccc(F)c(NC(=O)C2CN(C(C)(C)C)N=C2CC)c1 (stereo not shown) [Compound 336, 1-(1,1-dimethylethyl)-3-ethyl-N-[5-[(ethylamino)carbonyl]-2-fluorophenyl]-4,5-dihydro-1H-pyrazole-4-carboxamide]","Plant response rating (0 to 100 scale), Corn",corn; [4],50
same,plant injury at 125 g/ha,"corn; Zea mays, post-emergence, 125 g ai/ha, visual rating, scale 0 (no effect) to 100 (complete control), read-out: Corn plant response rating",10%
same,plant injury at 500 g/ha,"corn; Zea mays, post-emergence, postemergence, 500 g ai/ha, scale 0 to 100, 0 is no effect, 100 is complete control, read-out: Corn plant response rating",20%
same,"Corn plant response rating (crop injury, 0 = no effect, 100 = complete kill) at 500 g/ha","corn; Zea mays, pre-emergence, 500 g ai/ha, visual rating, 0 = no effect, 100 = complete control",100%
same,pest or weed control at 125 g/ha,wild oat; [5],10%
same,pest or weed control at 500 g/ha,wild oat; [6],20%
same,pest or weed control at 1000 g/ha,[1],80%
same,plant injury at 1000 g/ha,rice,80%
same,"Plant response rating (0 to 100 scale), Lambsquarters",lambsquarters; [4],90
same,pest or weed control at 125 g/ha,"lambsquarters; Chenopodium album, post-emergence, 336 h, 125 g ai/ha, visual rating, scale 0 (no effect) to 100 (complete control), read-out: Lambsquarters plant response rating",60%
same,pest or weed control at 500 g/ha,"lambsquarters; Chenopodium album, post-emergence, 336 h, postemergence, scale 0 to 100, 0 is no effect, 100 is complete control, read-out: Lambsquarters plant response rating",90%
same,pest or weed control at 500 g/ha,"lambsquarters; Chenopodium album, pre-emergence, 336 h, visual rating, 0 = no effect, 100 = complete control, read-out: Plant response rating, Lambsquarters",100%
same,"Plant response rating (0 to 100 scale), Barnyardgrass",barnyardgrass [2]; [4],100
same,pest or weed control at 125 g/ha,"barnyardgrass [2]; Echinochloa crus-galli, post-emergence, 125 g ai/ha, visual rating, scale 0 (no effect) to 100 (complete control), read-out: Barnyardgrass plant response rating",10%
same,pest or weed control at 500 g/ha,"barnyardgrass [2]; Echinochloa crus-galli, post-emergence, postemergence, scale 0 to 100, 0 is no effect, 100 is complete control, read-out: Barnyardgrass plant response rating",30%
same,pest or weed control at 500 g/ha,"barnyardgrass [2]; Echinochloa crus-galli, pre-emergence, visual rating, 0 = no effect, 100 = complete control, read-out: Plant response rating, Barnyardgrass",100%
same,pest or weed control at 1000 g/ha,barnyardgrass [3],90%
same,"Plant response rating (0 to 100 scale), Foxtail, Giant",giant foxtail; [4],60
same,pest or weed control at 125 g/ha,"giant foxtail; Setaria faberi, post-emergence, 336 h, 125 g ai/ha, visual rating, scale 0 (no effect) to 100 (complete control), read-out: Foxtail, Giant plant response rating",20%
same,pest or weed control at 500 g/ha,"giant foxtail; Setaria faberi, post-emergence, 336 h, postemergence, scale 0 to 100, 0 is no effect, 100 is complete control, read-out: Foxtail, Giant plant response rating",40%
same,pest or weed control at 500 g/ha,"giant foxtail; Setaria faberi, pre-emergence, 336 h, visual rating, 0 = no effect, 100 = complete control, read-out: Plant response rating, Foxtail, Giant",100%
same,pest or weed control at 1000 g/ha,ducksalad,90%
same,"Plant response rating (0 to 100 scale), Cocklebur",cocklebur; [4],10
same,pest or weed control at 125 g/ha,"cocklebur; Xanthium strumarium, post-emergence, 125 g ai/ha, visual rating, scale 0 (no effect) to 100 (complete control), read-out: Cocklebur plant response rating",0%
same,pest or weed control at 500 g/ha,"cocklebur; Xanthium strumarium, post-emergence, postemergence, scale 0 to 100, 0 is no effect, 100 is complete control, read-out: Cocklebur plant response rating",50%
same,pest or weed control at 500 g/ha,"cocklebur; Xanthium strumarium, pre-emergence, visual rating, 0 = no effect, 100 = complete control, read-out: Plant response rating, Cocklebur",40%
same,"Plant response rating (0 to 100 scale), Pigweed",pigweed; [4],100
same,pest or weed control at 125 g/ha,"pigweed; Amaranthus retroflexus, post-emergence, 336 h, 125 g ai/ha, visual rating, scale 0 (no effect) to 100 (complete control), read-out: Pigweed plant response rating",60%
same,pest or weed control at 500 g/ha,"pigweed; Amaranthus retroflexus, post-emergence, 336 h, postemergence, scale 0 to 100, 0 is no effect, 100 is complete control, read-out: Pigweed plant response rating",70%
same,pest or weed control at 500 g/ha,"pigweed; Amaranthus retroflexus, pre-emergence, 336 h, visual rating, 0 = no effect, 100 = complete control, read-out: Plant response rating, Pigweed",100%
same,"Plant response rating (0 to 100 scale), Velvetleaf",velvetleaf; [4],30
same,pest or weed control at 125 g/ha,"velvetleaf; Abutilon theophrasti, post-emergence, 336 h, 125 g ai/ha, visual rating, scale 0 (no effect) to 100 (complete control), read-out: Velvetleaf plant response rating",20%
same,pest or weed control at 500 g/ha,"velvetleaf; Abutilon theophrasti, post-emergence, 336 h, postemergence, 500 g ai/ha, scale 0 to 100, 0 is no effect, 100 is complete control, read-out: Velvetleaf plant response rating",30%
same,pest or weed control at 125 g/ha,blackgrass; [5],10%
same,pest or weed control at 500 g/ha,blackgrass; [6],20%
same,"Plant response rating (0 to 100 scale), Crabgrass, Large",large crabgrass; [4],90
same,pest or weed control at 125 g/ha,"large crabgrass; Digitaria sanguinalis, post-emergence, 125 g ai/ha, visual rating, scale 0 (no effect) to 100 (complete control), read-out: Crabgrass, Large plant response rating",20%
same,pest or weed control at 500 g/ha,"large crabgrass; Digitaria sanguinalis, post-emergence, postemergence, scale 0 to 100, 0 is no effect, 100 is complete control, read-out: Crabgrass, Large plant response rating",50%
same,pest or weed control at 500 g/ha,"large crabgrass; Digitaria sanguinalis, pre-emergence, visual rating, 0 = no effect, 100 = complete control, read-out: Plant response rating, Crabgrass, Large",100%
same,"Plant response rating (0 to 100 scale), Morningglory",morningglory; [4],20
same,pest or weed control at 125 g/ha,"morningglory; Ipomoea, post-emergence, 336 h, 125 g ai/ha, visual rating, scale 0 (no effect) to 100 (complete control), read-out: Morningglory plant response rating",40%
same,pest or weed control at 500 g/ha,"morningglory; Ipomoea, post-emergence, 336 h, postemergence, scale 0 to 100, 0 is no effect, 100 is complete control, read-out: Morningglory plant response rating",70%
same,pest or weed control at 500 g/ha,"morningglory; Ipomoea, pre-emergence, 336 h, visual rating, 0 = no effect, 100 = complete control, read-out: Plant response rating, Morningglory",70%

# Reference: US20060069132A1, “Azolecarboxamide herbicides” (priority 2004, published 2006)
